Measurements as given in patent US8710064B2, “2-aryl-4-quinazolinones and their pharmaceutical compositions” (China Medical University, priority 2011, dated 2014).

Experiments:
M21 = assay: trypan blue exclusion assay, M21 cells; type: cell-based; conditions: Homo sapiens; M21 skin cancer; trypan blue exclusion assay; read-out: IC50 M21
Procedure: M21 cell line (human malignant melanoma) was provided by Dr. Feng-Yao Tang (China Medical University, Taiwan). Cells were grown in monolayer culture in RPMI-1640 medium, Eagle's minimum essential medium or Dulbecco's modified Eagles medium (Invitrogen Corporation, Grand Island, N.Y., USA) containing 10% fetal bovine serum (FBS; HyClone, Logan, Utah, USA), 100 U/ml penicillin and 100 μg/ml streptomycin (Gibco BRL, Rockville, Md., USA).
(§1) Cell viability was also determined by trypan-blue exclusion assay. Cells were seeded in 6-well plates (2×10^4/well) for trypan blue exclusion assay, and incubated for 24 hours at 37° C. Culture medium containing test compound or DMSO (0.006%) was added to each well, and cells were incubated at 37° C. At indicated time points (0, 24, 48, 72 and 96 hr), cells were suspended with 0.05% trypsin-EDTA, and stained with trypan-blue dye (0.4%) (Sigma). The cell viability was evaluated by the percentage of death relative to the total cell, and cell growth curve was determined by number of live cells relative to the total number of cells.
(§2) The anti-proliferation effects of Compounds 17-31 on M21, CH27, H460, Hep3B and HSC-3 cells were evaluated by the trypan blue exclusion assay.

CH27 = assay: trypan blue exclusion assay, CH27 cells; type: cell-based; conditions: CH27 human lung squamous carcinoma
Procedure: CH27 cells (Human lung squamous carcinoma) were grown in monolayer culture in Dulbecco's modified Eagle's medium (DMEM; Life Technologies, Rockville, Md., USA) containing 5% FBS (HyClone, Logan, Utah, USA), 100 U/ml penicillin, […] streptomycin (Gibco BRL, Rockville, Md., USA) and 2 mM glutamine (Merck, Darmstadt, Germany).
as §1, §2

H460 = assay: trypan blue exclusion assay, H460 cells; type: cell-based; conditions: NCI-H460, H460 human non-small cell lung cancer
Procedure: (§3) Hep3B (human hepatocellular carcinoma) and H460 (lung non-small carcinoma) cells were grown in monolayer culture in Dulbecco's modified Eagle's medium (DMEM) (Life Technologies, Rockville, Md., USA) containing 5% fetal bovine serum (HyClone, Logan, Utah, USA), 100 U/ml penicillin and 100 μg/ml streptomycin (Gibco BRL, Rockville, Md., USA) and 2 mM glutamine (Merck, Darmstadt, Germany).
as §1, §2

Hep3B = assay: trypan blue exclusion assay, Hep3B cells; type: cell-based; conditions: Hep3B human hepatoma
Procedure: as §3, §1, §2

HSC-3 = assay: trypan blue exclusion assay, HSC-3 cells; type: cell-based, human; conditions: for IC50: HSC-3 human squamous carcinoma, trypan blue exclusion assay
Procedure: The HSC-3 (human oral squamous cell carcinoma) were cultured in 1:1 Dulbecco's Modified Eagle's Medium (DMEM) and Ham's Nutrient Mixture F-12, containing 10% FBS (HyClone, Logan, Utah, USA), 100 U/ml penicillin, 100 μg/ml streptomycin (Gibco BRL, Rockville, Md., USA) and 2 mM glutamine (Merck, Darmstadt, Germany).
as §1, §2

C6 rat glioma = assay: MTS cell viability assay, C6 glioma cells; type: cell-based; conditions: 48 hours, mean±SEM, n=3
Procedure: (§4) The human glioma cell lines U87, U251, T98G, U373, and rat glioma cell line RT2 provided by Dr. Michael Hsiao (Genomics Research Center, Academia Sinica, Taiwan) were cultured in Dulbecco's Modified Eagle medium (DMEM) (Caisson) supplemented with 10% fetal bovine serum (FBS) (Sigma-Aldrich), 2 mM L-glutamine (Caisson), 100 U/ml penicillin, and 100 μg/ml streptomycin (Caisson). The rat glioma C6 cell line provided by Dr. Shun-Fen Tzeng (National Cheng Kung University, Taiwan) was cultured in DMEM/F12 (Caisson) supplemented with 10% fetal bovine serum, 2 mM L-glutamine, 100 U/ml penicillin, and 100 μg/ml streptomycin. The human normal glia cell line SVGP12, kindly provided by Dr. Michael Hsiao, was cultured in Minimum Essential Medium (MEM) (Invitrogen) supplemented with 10% fetal bovine serum, 2 mM L-glutamine, 100 U/ml penicillin, and […]. Primary glia cells were prepared by surgery. Cerebral cortices without meninges were dissected from postnatal (P0-P2) Sprague-Dawley (SD, NCKU Laboratory Animal Center) rats and dissociated in 0.05% trypsin-EDTA (Biowest) at 37° C. for 10 min. Culture medium was added and pipetted for several times, and supernatant was removed after a centrifugation at 1,000 rpm for 5 minutes. […]
(§5) Cell proliferation was determined by MTS (tetrazolium compound, 3-(4,5-dimethylthiazol-2-yl)-5-(3-carboxymethoxyphenyl)-2-(4-sulfophenyl)-2H-tetrazolium) assay (Promega). […] The absorbance of soluble formazan was measured at 490 nm with microplate reader (Molecular device). The cell viability was determined by the percentage of the absorption relative to untreated control. […]
(§6) To investigate the effect of 2-aryl-4-quinazolinone in accordance with the present invention on cell proliferation, glioma cell lines were treated with MJ-66, MJ-68, or MJ-78. […] The cell viability of each group was analyzed by MTS assay (mean±SEM, n=3).

[1] = test system: U87 human glioma cell lines; assay: MTS cell viability assay, U87 glioma cells; type: cell-based; conditions: 48 hours, mean±SEM, n=3
Procedure: as §4, §5, §6

[2] = test system: M21, CH27, H460, Hep3B and HSC-3 cells; assay: trypan blue exclusion assay, cancer cell panel (summary); type: cell-based; conditions: summary of Table 2
Procedure: as §1, §2

| Compound | IC50 (H460) | IC50 (Hep3B) | melting point | IC50 (M21) | IC50 (CH27) | IC50 (HSC-3) | IC50 (C6 rat glioma) | IC50 [1] | cytotoxic effects toward cancer cells [2] | activity on HSC-3 cells (HSC-3; summary of Table 2) |
| --- | --- | --- | --- | --- | --- | --- | --- | --- | --- | --- |
| CN(C)c1ccc2nc(-c3csc4ccccc34)[nH]c(=O)c2c1 [Compound 22] | > 10 µM | > 10 µM | > 300 °C | > 10 µM | > 10 µM | > 10 µM | – | – | – | – |
| CN(C)c1ccc2nc(-c3cccc4ccccc34)[nH]c(=O)c2c1 [Compound 20, 6-(N,N-Dimethylamino)-2-(naphthalen-1-yl) quinazolin-4-one] | 0.506 µM | 8.63 µM | – | 3.77 µM | 0.447 µM | 0.202 µM | – | – | exhibited cytotoxic effects | – |
| O=c1[nH]c(-c2c[nH]c3ccccc23)nc2ccc(N3CCCC3)cc12 [Compound 24, 6-(Pyrrolidin-1-yl)-2-(1H-indol-3-yl)quinazolin-4-one] | 8.81 µM | 7.39 µM | – | 7.63 µM | 8.7 µM | 1.89 µM | – | – | exhibited cytotoxic effects | – |
| O=c1[nH]c(-c2cccc3ccccc23)nc2ccc(N3CCCCC3)cc12 [Compound 26, 6-(Piperidin-1-yl)-2-(naphthalen-1-yl)quinazolin-4-one] | 0.376 µM | 7.24 µM | – | 1.59 µM | 0.362 µM | 1.73 µM | 0.47 ± 0.16 µM | 0.54 ± 0.24 µM | exhibited cytotoxic effects | – |
| COc1ccc2nc(-c3cccc4ccccc34)[nH]c(=O)c2c1 [Compound 17, 6-Methoxy-2-(naphthalen-1-yl) quinazolin-4-one] | 0.079 µM | 1.87 µM | – | 6.09 µM | 0.089 µM | > 10 µM | – | – | exhibited cytotoxic effects | inactive |
| O=c1[nH]c(-c2c[nH]c3ccccc23)nc2ccc(N3CCCCC3)cc12 [Compound 27, 6-(Piperidin-1-yl)-2-(1H-indol-3-yl)quinazolin-4-one] | 6.86 µM | 5.65 µM | – | 8.99 µM | > 10 µM | > 10 µM | – | – | exhibited cytotoxic effects | – |
| O=c1[nH]c(-c2cccc3ccccc23)nc2ccc(N3CCOCC3)cc12 [Compound 29, 6-(Morpholino)-2-(naphthalen-1-yl)quinazolin-4-one] | 0.432 µM | 1.06 µM | – | 2.33 µM | 0.597 µM | 0.614 µM | – | – | exhibited cytotoxic effects | – |

Further lines, with some results ahead:

| IC50 (H460) | IC50 (Hep3B) | melting point | Compound | IC50 (M21) | IC50 (CH27) | IC50 (HSC-3) | IC50 (C6 rat glioma) | IC50 [1] | cytotoxic effects toward cancer cells [2] | activity on HSC-3 cells (HSC-3; summary of Table 2) |
| --- | --- | --- | --- | --- | --- | --- | --- | --- | --- | --- |
| > 10 µM | > 10 µM | > 300 °C | O=c1[nH]c(-c2csc3ccccc23)nc2ccc(N3CCCC3)cc12 [Compound 25, 6-(Pyrrolidin-1-yl)-2-(benzo[b]thiophen-3-yl)quinazolin-4-one] | > 10 µM | > 10 µM | > 10 µM | > 1 µM | > 1 µM | – | – |
| > 10 µM | > 10 µM | 311 to 312 °C | COc1ccc2nc(-c3c[nH]c4ccccc34)[nH]c(=O)c2c1 [Compound 18, 6-Methoxy-2-(1H-indol-3-yl) quinazolin-4-one] | > 10 µM | > 10 µM | > 10 µM | – | – | – | – |
| > 10 µM | > 10 µM | > 300 °C | O=c1[nH]c(-c2csc3ccccc23)nc2ccc(N3CCCCC3)cc12 [Compound 28] | > 10 µM | > 10 µM | > 10 µM | – | – | – | – |
| > 10 µM | > 10 µM | > 300 °C | O=c1[nH]c(-c2csc3ccccc23)nc2ccc(N3CCOCC3)cc12 [Compound 31, 6-(Morpholino)-2-(benzo[b]thiophen-3-yl) quinazolin-4-one] | > 10 µM | > 10 µM | > 10 µM | – | – | – | – |
| > 10 µM | > 10 µM | > 300 °C | O=c1[nH]c(-c2c[nH]c3ccccc23)nc2ccc(N3CCOCC3)cc12 [Compound 30, 6-(Morpholino)-2-(1H-indol-3-yl)quinazolin-4-one] | > 10 µM | > 10 µM | > 10 µM | – | – | – | – |
| > 10 µM | > 10 µM | > 300 °C | CN(C)c1ccc2nc(-c3c[nH]c4ccccc34)[nH]c(=O)c2c1 [Compound 21, 6-(N,N-Dimethylamino)-2-(1H-indol-3-yl)quinazolin-4-one] | > 10 µM | > 10 µM | > 10 µM | – | – | – | – |
| > 10 µM | > 10 µM | 289 to 290 °C | COc1ccc2nc(-c3csc4ccccc34)[nH]c(=O)c2c1 [Compound 19, 6-Methoxy-2-(benzo[b]thiophen-3-yl) quinazolin-4-one] | > 10 µM | > 10 µM | > 10 µM | – | – | – | – |
